{"source": "paper PMC12525602", "about": "“Identification of Selective α-Glucosidase Inhibitors via Virtual Screening with Machine Learning” (Molecules, 2025)", "origin": "cited, not measured here"}
{"test_system": "α-glucosidase", "conditions": "300-compound dataset of reported inhibitors and ineffective compounds, Table S4; cited from earlier work"}
{"smiles": "COc1cc(-c2oc3cc(O)cc(O)c3c(=O)c2O[C@@H]2O[C@H](CO[C@@H]3O[C@@H](C)[C@H](O)[C@@H](O)[C@H]3O)[C@@H](O)[C@H](O)[C@H]2O)ccc1O", "note": "[compound 2, C[C@H]1[C@H](O)[C@@H](O)[C@@H](O)[C@H](OC[C@@H]2[C@@H](O)[C@H](O)[C@@H](O)[C@H](OC3=C(C4=CC(OC)=C(O)C=C4)OC5=CC(O)=CC(O)=C5C3=O)O2)O1]", "activity (label in modeling dataset)": 0}
{"smiles": "Cc1ccc(Nc2nnc(-c3cc4cc(C#N)ccc4[nH]3)s2)cc1", "note": "[compound 4, CC(C=C1)=CC=C1NC(S2)=NN=C2C3=CC4=CC(C#N)=CC=C4N3]", "activity (label in modeling dataset)": 0}
{"test_system": "α-glucosidase", "conditions": "Table S5 modeling dataset; activity label 1 = active, 0 = inactive; cited from earlier work"}
{"smiles": "CC1CCCN(c2ccc(/C=N/Nc3nc(-c4ccccc4)cs3)cc2)C1", "note": "(centres unmarked) [compound 119]", "activity": 0}
{"smiles": "COc1ccc(S(=O)(=O)NNC(=O)c2cc3cc(F)ccc3[nH]2)cc1", "note": "[compound 105]", "activity": 0}
{"smiles": "N#Cc1c(-c2ccc(Cl)cc2)cc(-c2cccnc2)c(C#N)c1N", "note": "[compound 97]", "activity": 0}
{"smiles": "N#Cc1ccc(S(=O)(=O)NNC(=O)c2cc3cc(F)ccc3[nH]2)cc1", "note": "[compound 122]", "activity": 0}
{"smiles": "Fc1ccc(CSc2nnc(COc3cccc4cccnc34)o2)c(F)c1", "note": "[compound 108]", "activity": 0}
{"smiles": "C[n+]1cccc(C(=O)[O-])c1", "note": "[compound 133]", "activity": 0}
{"smiles": "N#Cc1c(-c2ccc(Cl)cc2)cc(-c2ccc([N+](=O)[O-])cc2)c(C#N)c1N", "note": "[compound 103]", "activity": 0}
{"smiles": "CC(C)=CCC1(O)C(O)=C(C(=O)CC(C)C)C(=O)C1(O)C(=O)C=C(C)C", "note": "(centres unmarked) [compound 130]", "activity": 0}
{"smiles": "CCCCCC/C=C\\CCCCCCCC(=O)O", "note": "[compound 129]", "activity": 0}
{"smiles": "O=C(NNS(=O)(=O)c1ccc(OC(F)(F)F)cc1)c1cc2cc(F)ccc2[nH]1", "note": "[compound 94]", "activity": 0}
{"smiles": "O=C(c1ccccc1)c1ccc2nc(-c3ccc(O)cc3)[nH]c2c1", "note": "[compound 135]", "activity": 0}
{"test_system": "α-glucosidase", "conditions": "activity label in the 300-compound modeling dataset (Table S5); 1 = active, 0 = inactive; cited from earlier work"}
{"smiles": "COc1cccc(C(=O)C2C(O)c3ccccc3S(=O)(=O)N2CC(=O)Nc2ccc(Br)cc2)c1", "note": "(centres unmarked) [compound 202]", "activity": 1}
{"smiles": "COc1ccc(OC)c(/C(CSc2nnc3c(n2)[nH]c2ccccc23)=N\\c2nnc(-c3cc(Br)ccc3OC)s2)c1", "note": "[compound 198]", "activity": 1}
{"smiles": "COc1cccc(C(=O)C2C(O)c3ccccc3S(=O)(=O)N2CC(=O)Nc2cccc(C)c2)c1", "note": "(centres unmarked) [compound 196]", "activity": 1}
{"smiles": "CC1CCN(c2ccc(/C=N/Nc3nc(-c4ccc(O)cc4)cs3)cc2)CC1", "note": "[compound 194]", "activity": 1}
{"smiles": "O=C(CCc1ccc(O)cc1)c1c(O)cc(O)cc1O[C@@H]1O[C@H](CO)[C@@H](O)[C@H](O)[C@H]1O", "note": "[compound 192]", "activity": 1}
{"smiles": "O=C(NNS(=O)(=O)c1ccc(F)cc1)c1cc2cc(F)ccc2[nH]1", "note": "[compound 207]", "activity": 1}
{"smiles": "C[C@@H]1O[C@@H](O[C@H]2C(=O)c3c(O)cc(O)cc3O[C@@H]2c2ccc(O)c(O)c2)[C@H](O)[C@H](O)[C@H]1O", "note": "[compound 229]", "activity": 1}
{"smiles": "Cc1ccc(-c2cc(C(F)(F)F)nn2-c2ccc(S(=O)(=O)NC(=O)c3ccc(Br)cc3)cc2)cc1", "note": "[compound 208]", "activity": 1}
{"smiles": "O=C(CCc1ccc(NS(=O)(=O)c2ccc(C(F)(F)F)cc2)cc1)N1CC[C@H](O)[C@H](O)C1", "note": "[compound 225]", "activity": 1}
{"smiles": "Cc1ccc(-c2cc(C(F)(F)F)nn2-c2ccc(S(=O)(=O)NC(=O)c3ccccc3)cc2)cc1", "note": "[compound 197]", "activity": 1}
{"smiles": "Oc1cccc(-c2cc3cccc(Cl)c3o2)c1", "note": "[compound 203]", "activity": 1}
{"test_system": "α-glucosidase", "conditions": "activity label of the 300-compound modeling dataset, Table S5; cited from earlier work"}
{"smiles": "COC(=O)Cn1c(=O)oc2c(C(=O)/C=C/c3cc(F)c(O)c(F)c3)cccc21", "note": "[compound 264]", "activity": 1}
{"smiles": "Cc1cc(C)cc(Cn2cc(COc3ccc(-c4nc(-c5ccccc5)c(-c5ccccc5)[nH]4)cc3)nn2)c1", "note": "[compound 267]", "activity": 1}
{"smiles": "Brc1ccc(CNc2cccc(-c3nc4ccccc4[nH]3)c2)cc1", "note": "[compound 275]", "activity": 1}
{"smiles": "COc1cc(-c2nc3ccccc3[nH]2)ccc1OCC(=O)Nc1ccc(F)cc1", "note": "[compound 261]", "activity": 1}
{"smiles": "O=C(COc1c(I)cc(Cl)c2cccnc12)c1ccc([N+](=O)[O-])cc1", "note": "[compound 248]", "activity": 1}
{"smiles": "Oc1cccc(-c2nnc(/N=C(/CSc3nnc4c(n3)[nH]c3ccccc34)c3ccc(-c4ccccc4)cc3)s2)c1", "note": "[compound 269]", "activity": 1}
{"smiles": "O=C(COc1c(I)cc(Cl)c2cccnc12)c1ccc(-c2ccccc2)cc1", "note": "[compound 242]", "activity": 1}
{"smiles": "O=C(/C=C/c1ccc(Cl)cc1)c1cc2ccccc2oc1=O", "note": "[compound 273]", "activity": 1}
{"smiles": "O=C(COc1c(I)cc(Cl)c2cccnc12)c1cccc(Br)c1", "note": "[compound 268]", "activity": 1}
{"smiles": "Clc1ncccc1CNc1cccc(-c2nc3ccccc3[nH]2)c1", "note": "[compound 237]", "activity": 1}
{"smiles": "O=C(COc1c(I)cc(Cl)c2cccnc12)c1ccc(Br)cc1", "note": "[compound 256]", "activity": 1}
{"test_system": "α-glucosidase", "conditions": "activity label of the modeling dataset (Table S5), α-glucosidase; 1 = active, 0 = inactive; cited from earlier work"}
{"smiles": "N#Cc1c(-c2ccc(Cl)cc2)cc(-c2ccco2)c(C#N)c1N", "note": "[compound 24]", "activity": 0}
{"smiles": "COc1cc(-c2oc3cc(O)cc(O)c3c(=O)c2O[C@@H]2O[C@H](CO[C@@H]3O[C@@H](C)[C@H](O)[C@@H](O)[C@H]3O)[C@@H](O)[C@H](O)[C@H]2O)ccc1O", "note": "[compound 2, C[C@H]1[C@H](O)[C@@H](O)[C@@H](O)[C@H](OC[C@@H]2[C@@H](O)[C@H](O)[C@@H](O)[C@H](OC3=C(C4=CC(OC)=C(O)C=C4)OC5=CC(O)=CC(O)=C5C3=O)O2)O1]", "activity": 0}
{"smiles": "N#Cc1c(-c2ccncc2)cc(-c2ccc([N+](=O)[O-])cc2)c(C#N)c1N", "note": "[compound 18]", "activity": 0}
{"smiles": "N#Cc1ccc2[nH]c(-c3nnc(Nc4ccccc4Br)s3)cc2c1", "note": "[compound 11]", "activity": 0}
{"smiles": "COc1cccc(Nc2nnc(-c3cc4cc(C#N)ccc4[nH]3)s2)c1", "note": "[compound 43]", "activity": 0}
{"smiles": "N#Cc1c(-c2ccncc2)cc(-c2cccnc2)c(C#N)c1N", "note": "[compound 25]", "activity": 0}
{"smiles": "N#Cc1c(-c2ccc(Cl)cc2)cc(-c2cccc(Cl)c2)c(C#N)c1N", "note": "[compound 12]", "activity": 0}
{"smiles": "N#Cc1ccc2[nH]c(-c3nnc(Nc4ccc(Cl)cc4)s3)cc2c1", "note": "[compound 23]", "activity": 0}
{"smiles": "O=c1c(O[C@@H]2O[C@H](CO)[C@H](O)[C@H](O)[C@H]2O)c(-c2ccc(O)c(O)c2)oc2cc(O)cc(O)c12", "note": "[compound 38]", "activity": 0}
{"smiles": "N#Cc1c(-c2cccc(Cl)c2)cc(-c2ccco2)c(C#N)c1N", "note": "[compound 7]", "activity": 0}
{"smiles": "O=c1c(OC2OC(CO)C(O)C(O)C2O)c(-c2cc(O)c(O)c(O)c2)oc2cc(O)cc(O)c12", "note": "(centres unmarked) [compound 34]", "activity": 0}
{"smiles": "O=C(c1ccccc1)c1ccc2nc(-c3ccc(O)cc3O)[nH]c2c1", "note": "[compound 9]", "activity": 0}
{"smiles": "Cc1ccc(Nc2nnc(-c3cc4cc(C#N)ccc4[nH]3)s2)cc1", "note": "[compound 4, CC(C=C1)=CC=C1NC(S2)=NN=C2C3=CC4=CC(C#N)=CC=C4N3]", "activity": 0}
{"test_system": "α-glucosidase", "conditions": "activity label of the modeling dataset, Table S5 (1 = active, 0 = inactive); cited from earlier work"}
{"smiles": "BrCCSc1nnc(COc2cccc3cccnc23)o1", "note": "[compound 57]", "activity": 0}
{"smiles": "O=C(NNS(=O)(=O)c1cccc2ncccc12)c1cc2cc(F)ccc2[nH]1", "note": "[compound 90]", "activity": 0}
{"smiles": "O=[N+]([O-])c1ccc(CSc2nnc(COc3cccc4cccnc34)o2)cc1", "note": "[compound 89]", "activity": 0}
{"smiles": "N#Cc1c(-c2cccc(Cl)c2)cc(-c2cccc([N+](=O)[O-])c2)c(C#N)c1N", "note": "[compound 50]", "activity": 0}
{"smiles": "C[C@@H]1O[C@@H](Oc2c(-c3ccc(O)c(O)c3)oc3cc(O)cc(O)c3c2=O)[C@H](O)[C@H](O)[C@H]1O", "note": "[compound 45]", "activity": 0}
{"smiles": "CCCCCSc1nnc(COc2cccc3cccnc23)o1", "note": "[compound 55]", "activity": 0}
{"smiles": "N#Cc1c(-c2ccc([N+](=O)[O-])cc2)cc(-c2cccc(Br)c2)c(C#N)c1N", "note": "[compound 48]", "activity": 0}
{"smiles": "N#Cc1ccc2[nH]c(-c3nnc(Nc4ccc([N+](=O)[O-])cc4)s3)cc2c1", "note": "[compound 60]", "activity": 0}
{"smiles": "CC1CCCN(c2ccc(/C=N/Nc3nc(-c4ccc(F)cc4F)cs3)cc2)C1", "note": "(centres unmarked) [compound 78]", "activity": 0}
{"smiles": "Fc1ccc(CSc2nnc(COc3cccc4cccnc34)o2)cc1F", "note": "[compound 80]", "activity": 0}
{"smiles": "CC1OC(Oc2cc(-c3oc4cc(O)cc(O)c4c(=O)c3O)cc(O)c2O)C(O)C(O)C1O", "note": "(centres unmarked) [compound 76]", "activity": 0}
{"smiles": "CCCCCCCCCCCCN", "note": "[compound 44]", "activity": 0}
{"smiles": "CCCCCCn1cc(CSc2nnc(COc3cccc4cccnc34)o2)nn1", "note": "[compound 77]", "activity": 0}
{"smiles": "CC1CCN(c2ccc(/C=N/Nc3nc(-c4ccc([N+](=O)[O-])cc4)cs3)cc2)CC1", "note": "[compound 67]", "activity": 0}
{"smiles": "CCCCCCSc1nnc(COc2cccc3cccnc23)o1", "note": "[compound 51]", "activity": 0}
{"smiles": "CC1CCCN(c2ccc(/C=N/Nc3nc(-c4ccc(F)cc4)cs3)cc2)C1", "note": "(centres unmarked) [compound 87]", "activity": 0}
{"test_system": "α-glucosidase", "conditions": "activity label of the modeling dataset, Table S5; cited from earlier work"}
{"smiles": "COc1ccc(Br)cc1-c1nnc(/N=C(/CSc2nnc3c(n2)[nH]c2ccccc23)c2cccc([N+](=O)[O-])c2)s1", "note": "[compound 164]", "activity": 1}
{"smiles": "COc1cccc(C(=O)C2C(O)c3ccccc3S(=O)(=O)N2CC(=O)Nc2ccc(Cl)cc2)c1", "note": "(centres unmarked) [compound 178]", "activity": 1}
{"smiles": "N#Cc1ccc2[nH]c(-c3nnc(Nc4ccc(F)cc4)s3)cc2c1", "note": "[compound 170]", "activity": 1}
{"smiles": "COc1cc(Br)ccc1-c1nnc(/N=C(/CSc2nnc3c(n2)[nH]c2ccccc23)c2ccc(Br)cc2Br)s1", "note": "[compound 151]", "activity": 1}
{"smiles": "COc1cc(/C=C/C(=O)O)ccc1O", "note": "[compound 183]", "activity": 1}
{"smiles": "O=c1c(O[C@@H]2O[C@@H](CO)[C@H](O)[C@H]2O)c(-c2ccc(O)c(O)c2)oc2cc(O)cc(O)c12", "note": "[compound 139]", "activity": 0}
{"smiles": "COc1cc(/C=N/N=C2\\C(=O)Nc3ccccc32)ccc1OCc1cn(Cc2ccc(F)cc2)nn1", "note": "[compound 144]", "activity": 0}
{"smiles": "Cc1ccccc1Cn1cc(COc2ccc(/C=N/N=C3\\C(=O)N(c4ccc(Br)cc4)c4ccccc43)cc2)nn1", "note": "[compound 146]", "activity": 0}
{"smiles": "O=C(O)CCCCCCCCCCCCCCCO", "note": "[compound 160]", "activity": 1}
{"smiles": "O=C(CCc1ccc(O)cc1)c1c(O)cc(O[C@@H]2O[C@H](CO)[C@@H](O)[C@H](O)[C@H]2O)cc1O", "note": "[compound 155]", "activity": 1}
{"smiles": "CCCCCCCCCCCCCC(=O)O", "note": "[compound 141]", "activity": 0}
{"smiles": "CC(C)=CCc1c(O)cc2c(c1O)C(=O)CC(c1ccc(O)cc1)O2", "note": "(centres unmarked) [compound 169]", "activity": 1}
{"test_system": "α-glucosidase", "conditions": "activity label of the modeling dataset, sheet Table S5; 1 = active, 0 = inactive; cited from earlier work"}
{"smiles": "CCOC(=O)c1c(SCC(=O)Nc2ccccc2)nnc(-c2ccccc2)c1-c1ccccc1", "note": "[compound 292]", "activity": 1}
